Tests used:
Assay type in all cases: biochemical
[1] = biological target: T1, Arthromyces ramosus peroxidase (Arthromyces ramosus, UniProt P28313); assay: Oxidation (bleaching) of Direct Red 80 by peroxidase plus enhancer; conditions: pH 9, 30 min
T1 construct: purchased Sigma P4794
T1 sequence (P28313 21-364): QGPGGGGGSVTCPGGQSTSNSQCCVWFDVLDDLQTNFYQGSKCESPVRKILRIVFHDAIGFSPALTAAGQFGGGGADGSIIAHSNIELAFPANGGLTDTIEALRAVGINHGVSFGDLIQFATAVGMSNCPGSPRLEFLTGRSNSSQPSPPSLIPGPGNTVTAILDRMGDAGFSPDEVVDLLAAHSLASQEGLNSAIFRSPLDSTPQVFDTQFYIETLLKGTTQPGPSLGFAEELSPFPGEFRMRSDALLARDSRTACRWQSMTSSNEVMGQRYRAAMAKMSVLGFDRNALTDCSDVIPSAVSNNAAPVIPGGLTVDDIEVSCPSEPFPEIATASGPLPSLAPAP
Experimental: The reagents are added, using a pipette, in the following order, to a 1-cm cuvette: aqueous carbonate buffer pH 9 (20 mM), DR80 (60 μM), enhancer (various concentrations) and peroxidase enzyme (Arthromyces ramosus peroxidase from Sigma, P4794); 60 units/ml). The reaction was carried out for 30 minutes at room temperature. The difference in absorbance between t=0 and t=30 min (Δ Abs in Table) is a measure of the enhancing activity of the system tested.
(§1) Examples 3-7 were repeated using 2-azaPTP, 4-azaPTP and PTP.

[2] = biological target: T1, Arthromyces ramosus peroxidase; assay: Oxidation (bleaching) of Direct Green 26 by peroxidase plus enhancer; conditions: 25° C., pH 9, 30 min
Experimental: The oxidation of Direct Green 26 (DG26) is monitored at 610 nm in a spectrophotometer. […] The reaction was carried out for 30 minutes at room temperature. The difference in absorbance between t=0 and t=30 min (Δ Abs in Table) is a measure of the enhancing activity of the system tested.
as §1

[3] = biological target: T1, Arthromyces ramosus peroxidase; assay: Oxidation (bleaching) of Reactive Black 5 by peroxidase plus enhancer; conditions: for % bleaching / ΔAbs: 590 nm, 25° C., pH 9, 30 min
Experimental: The oxidation of Reactive Black 5 (RB5) is monitored at 590 nm in a spectrophotometer. […] The reaction was carried out for 30 minutes at room temperature. The difference in absorbance between t=0 and t=30 min (Δ Abs in Table) is a measure of the enhancing activity of the system tested.
ARP [6 u/ml], H2 O2 [250 μM], RB5 [60 μM], Enhancers [100 μM]
as §1

[4] = biological target: T2, laccase (Polyporus pinsitus) (Trametes villosa, UniProt Q99044); assay: Oxidation of Direct Green 26 by laccase plus enhancer; conditions: 25° C., laccase 30 u/ml, enhancer 67 μM
T2 sequence (Q99044 22-520): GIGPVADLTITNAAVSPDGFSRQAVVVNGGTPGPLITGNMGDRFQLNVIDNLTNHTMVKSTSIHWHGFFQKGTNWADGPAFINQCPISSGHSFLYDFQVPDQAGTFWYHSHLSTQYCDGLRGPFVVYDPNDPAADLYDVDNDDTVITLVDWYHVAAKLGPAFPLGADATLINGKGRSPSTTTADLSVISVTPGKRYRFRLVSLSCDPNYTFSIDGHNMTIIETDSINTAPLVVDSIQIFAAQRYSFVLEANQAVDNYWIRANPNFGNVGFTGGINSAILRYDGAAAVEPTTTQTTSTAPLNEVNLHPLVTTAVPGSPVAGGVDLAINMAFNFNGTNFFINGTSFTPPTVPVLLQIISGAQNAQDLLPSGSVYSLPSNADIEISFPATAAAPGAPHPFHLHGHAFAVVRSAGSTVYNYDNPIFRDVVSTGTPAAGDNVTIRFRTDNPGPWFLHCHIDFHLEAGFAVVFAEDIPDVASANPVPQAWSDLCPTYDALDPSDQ
Experimental: The oxidation of Direct Green 26 (DG26) is monitored at 605 nm in a spectrophotometer. The reagents are added, using a pipette, in the following order, to a 1-cm cuvette: aqueous tris buffer pH 9 (20 mM) or sodium phosphate buffer pH 6.0 (20 mM), DG26 (67 μM), enhancer (67 μM), and laccase (Polyporus pinsitus, 30 units/ml). The reaction was carried for 3 hours at room temperature. The difference in absorbance between […] and t=3 h is a measure of the enhancing activity of the system tested. DG26 [605 nm]: 25° C., pH 6.0 and 9.0, 3 h. Laccase [30 u/ml], DG26 [67 μM], Enhancers [67 μM]. The values listed are the decrease in absorbance at 605 nm after 3 h.

[5] = biological target: T2, laccase (Polyporus pinsitus); assay: Oxidation of Reactive Black 5 by laccase plus enhancer; conditions: for decrease in absorbance after 3 h: 25 C, laccase 30 u/ml, enhancer 67 μM
Experimental: The laccase activity is measured on a spectrophotometer with 2 mM ABTS in 20 mM sodium phosphate buffer pH 6.0 at 25° C. The oxidation of Reactive Black 5 (RB5) is monitored at 575 nm. The reagents are added, using a pipette, in the following order, to a 1-cm cuvette: aqueous tris buffer pH 9 (20 mM) or sodium phosphate buffer pH 6.0 (20 mM), RB5 (67 μM), enhancer (67 μM), and laccase (Polyporus pinsitus, 30 units/ml). The reaction was carried for 3 hours at room temperature. The difference in absorbance between t=0 and t=3 hours is a measure of the enhancing activity of the system tested. RB5 [575 nm]: 25 C, pH 6.0 and 9.0, 3 h. Laccase [30 u/ml], RB5 [67 μM], Enhancers [67 μM]. The values listed are the decrease in absorbance at […] after 3 h.

[6] = Example 8: DR80, 530 nm, 25° C., ARP 10 u/ml, H2O2 100 μM, dye 60 μM, enhancer 100 μM
[7] = Example 8: DR80, 530 nm, 25° C., ARP 10 u/ml, H2O2 100 μM, dye 60 μM, enhancer 200 μM
[8] = Example 8: DG26, 610 nm, ARP 10 u/ml, H2O2 100 μM, dye 60 μM, enhancer 200 μM
[9] = Example 8: RB5 60 μM, ARP 10 u/ml, H2O2 100 μM, enhancer 200 μM
[10] = DR80 60 μM, 500 nm, 25C, ARP 60 u/ml, H2O2 250 μM, enhancer 100 μM
[11] = DR80 60 μM, 500 nm, 25° C., ARP 60 u/ml, H2O2 250 μM, enhancer 10 μM
[12] = DR80 60 μM, 500 nm, 25° C., ARP 60 u/ml, H2O2 250 μM, enhancer 25 μM
[13] = DR80 60 μM, 500 nm, 25° C., ARP 60 u/ml, H2O2 250 μM, enhancer 50 μM
[14] = DG26 60 μM, 610 nm, ARP 60 u/ml, H2O2 250 μM, enhancer 100 μM
[15] = RB5 60 μM, ARP 6 u/ml, H2O2 250 μM, enhancer 100 μM

`O=C(O)CCN1c2ccccc2Sc2cnccc21` [Enhancer 2-aza-PTP, 10-(pyrido[3,4-b][1,4]benzothiazyl)propionic acid] was tested, and the “% bleaching” value [1, 6] was 12%, the “% bleaching” value [1, 7] was 20% and the “% bleaching” value [2, 8] was 31%. The “% bleaching” value [3, 9] was 63%.

For `O=C(O)CCN1c2ccccc2Sc2cccnc21` [Enhancer 4-aza-PTP, 10-(pyrido[3,2-b][1,4]benzothiazyl)propionic acid], the “% bleaching” value [1, 10] was 33%, the ΔAbs [1, 10] was 0.50 and the “% bleaching” value [1, 11] was 60%. For the same compound, the ΔAbs [1, 11] was 0.98, the “% bleaching” value [1, 12] was 83% and the ΔAbs [1, 12] was 1.26. For the same compound, the “% bleaching” value [1, 13] was 60%, the ΔAbs [1, 13] was 0.91 and the “% bleaching” value [1, 6] was 18%. For the same compound, the “% bleaching” value [1, 7] was 10%, the “decrease in absorbance at 605 nm after 3 h” value ([4]; pH 6.0, DG26 67 μM) was 0.34 and the “decrease in absorbance at 605 nm after 3 h” value ([4]; pH 9.0, DG26 67 μM) was 0.30. For the same compound, the “decrease in absorbance after 3 h” value ([5]; pH 6.0, RB5 67 μM) was 0.48, the “decrease in absorbance after 3 h” value ([5]; pH 9.0, RB5 67 μM) was 0.26 and the “enhancing capabilities with laccase” value ([5]; summary of Examples 6-7) was “excellent enhancing capabilities”. For the same compound, the “% bleaching” value [2, 14] was 78%, the ΔAbs [2, 14] was 1.09 and the “% bleaching” value [2, 8] was 43%. For the same compound, the “% bleaching” value [3, 9] was 64%, the “% bleaching” value [3, 15] was 76% and the ΔAbs [3, 15] was 1.01. The “enhancing capabilities with peroxidase” value ([3]; summary of Examples 3-5, especially at lower concentrations (Example 5)) was “excellent enhancing capabilities”.

For `O=C(O)CCN1c2ccccc2Sc2ccccc21` [PTP, reference compound], the “% bleaching” value [1, 10] was 48%, the ΔAbs [1, 10] was 0.78 and the “% bleaching” value [1, 11] was 20%. The ΔAbs [1, 11] was 0.33, the “% bleaching” value [1, 12] was 40% and the ΔAbs [1, 12] was 0.66. The “% bleaching” value [1, 13] was 50%, the ΔAbs [1, 13] was 0.82 and the “% bleaching” value [1, 6] was 6%. The “% bleaching” value [1, 7] was 2%, the “decrease in absorbance at 605 nm after 3 h” value ([4]; pH 6.0, DG26 67 μM) was 0.14 and the “decrease in absorbance at 605 nm after 3 h” value ([4]; pH 9.0, DG26 67 μM) was 0.37. For the same compound, the “decrease in absorbance after 3 h” value ([5]; pH 6.0, RB5 67 μM) was 0.32, the “decrease in absorbance after 3 h” value ([5]; pH 9.0, RB5 67 μM) was 0.24 and the “% bleaching” value [2, 14] was 65%. For the same compound, the ΔAbs [2, 14] was 0.92, the “% bleaching” value [2, 8] was 29% and the “% bleaching” value [3, 9] was 35%. For the same compound, the “% bleaching” value [3, 15] was 80% and the ΔAbs [3, 15] was 1.03.
